Test results: ChEMBL document CHEMBL1137869 (Bioorg Med Chem Lett, 2004)

Key:
[1] = molecular target: T1, Platelet-derived growth factor receptor beta (Homo sapiens, UniProt P09619); test: In vitro inhibition of Platelet derived growth factor receptor beta autophosphorylation in MG-63 cells with 45% human plasma; type: cell-based
[2] = molecular target: T1, Platelet-derived growth factor receptor beta; test: In vitro inhibition of Platelet derived growth factor receptor beta autophosphorylation in MG-63 cells without plasma; type: cell-based
[3] = molecular target: T1, Platelet-derived growth factor receptor beta; test: Inhibition of Platelet derived growth factor receptor beta autophosphorylation in CHO cells; type: cell-based
[4] = Inhibition of PDGFR-beta/c-Kit chimeric receptor autophosphorylation in CHO cells; type: cell-based
[5] = Inhibition of PDGFR-beta/Flt-3 chimeric receptor autophosphorylation in CHO cells; type: cell-based
[6] = Area under curve was determined in rat by peroral dose at 30 mg/kg; type: ADME, organism-based; set-up: dose 30 mg/kg, route oral; settings: in vivo, po
[7] = Bioavailability in rat (dose 30 mg/kg i.v./p.o.); type: ADME, organism-based; settings: in vivo, po
[8] = Maximum concentration was determined in monkey by iv/po dose at 10 mg/kg; type: ADME, organism-based; set-up: dose 10 mg/kg; settings: cercopithecidae, in vivo
[9] = Maximum concentration was determined in rat by iv/po dose at 30 mg/kg; type: ADME, organism-based; set-up: dose 30 mg/kg; settings: in vivo
[10] = Maximum concentration was determined in dog by iv/po dose at 8.09 mg/kg; type: ADME, organism-based, Canis lupus familiaris; set-up: dose 8.09 mg/kg; settings: in vivo
[11] = Plasma half life was determined in dog by iv/po dose at 8.09 mg/kg; type: ADME, organism-based, Canis lupus familiaris; set-up: dose 8.09 mg/kg
[12] = Percent bioavailability was determined in dog by iv/po dose at 8.09 mg/kg; type: ADME, organism-based, Canis lupus familiaris; settings: in vivo
[13] = Plasma half life was determined in monkey by iv/po dose at 10 mg/kg; type: ADME, organism-based; set-up: dose 10 mg/kg; settings: cercopithecidae
[14] = Plasma half life was determined in rat by iv/po dose at 30 mg/kg; type: ADME, organism-based; set-up: dose 30 mg/kg

T1 sequence (P09619 whole entry): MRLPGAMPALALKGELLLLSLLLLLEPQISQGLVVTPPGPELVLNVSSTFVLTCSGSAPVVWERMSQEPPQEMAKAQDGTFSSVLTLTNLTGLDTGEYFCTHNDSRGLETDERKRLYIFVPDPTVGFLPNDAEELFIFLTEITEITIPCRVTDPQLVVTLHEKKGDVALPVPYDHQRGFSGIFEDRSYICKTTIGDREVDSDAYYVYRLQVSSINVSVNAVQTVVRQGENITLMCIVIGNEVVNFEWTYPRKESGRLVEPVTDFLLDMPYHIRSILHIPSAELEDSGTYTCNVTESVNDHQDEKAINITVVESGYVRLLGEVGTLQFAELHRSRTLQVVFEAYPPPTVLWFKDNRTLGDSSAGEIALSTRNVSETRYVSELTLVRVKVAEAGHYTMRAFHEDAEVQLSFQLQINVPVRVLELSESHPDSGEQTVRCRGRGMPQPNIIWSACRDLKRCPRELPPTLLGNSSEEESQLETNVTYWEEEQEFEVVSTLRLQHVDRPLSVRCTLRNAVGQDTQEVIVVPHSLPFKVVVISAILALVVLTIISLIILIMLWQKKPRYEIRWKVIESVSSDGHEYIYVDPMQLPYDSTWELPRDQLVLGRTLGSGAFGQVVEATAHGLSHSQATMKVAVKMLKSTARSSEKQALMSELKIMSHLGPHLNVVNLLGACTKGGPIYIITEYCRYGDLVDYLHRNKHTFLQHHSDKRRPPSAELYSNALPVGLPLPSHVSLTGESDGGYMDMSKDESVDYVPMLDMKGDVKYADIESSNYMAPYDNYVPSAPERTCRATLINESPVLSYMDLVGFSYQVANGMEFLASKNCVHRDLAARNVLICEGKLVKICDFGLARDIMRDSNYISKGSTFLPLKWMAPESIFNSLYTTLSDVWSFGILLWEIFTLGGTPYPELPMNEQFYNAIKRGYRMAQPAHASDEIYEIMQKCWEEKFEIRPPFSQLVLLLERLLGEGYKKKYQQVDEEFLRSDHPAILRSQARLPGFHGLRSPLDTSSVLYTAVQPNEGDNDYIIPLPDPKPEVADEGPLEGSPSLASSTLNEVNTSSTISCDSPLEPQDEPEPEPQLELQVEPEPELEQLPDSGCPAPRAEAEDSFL

Row | SMILES | IC50 [1] [nM] | IC50 [2] [nM] | also measured
1 | COc1cc2c(N3CCN(/C(S)=N\c4ccsc4)CC3)ncnc2cc1OCCN1CCCCC1 | 740 | 100 | 
2 | COc1cc2c(N3CCN(/C(=N\Cc4ccc(C(C)C)cc4)NC#N)CC3)ncnc2cc1OCCCN1CCCCC1 | 970 | 920 | 
3 | COc1cc2c(N3CCN(C(=NC#N)Nc4ccncc4)CC3)ncnc2cc1OCCCN1CCCCC1 | 17100 | 31700 | 
4 | COc1cc2c(N3CCN(C(=S)NCc4ccc(C(F)(F)F)nc4)CC3)ncnc2cc1OCCN1CCCCC1 | 90 | 1030 | IC50 [3]: 150 nM; IC50 [4]: 240 nM; IC50 [5]: > 30000 nM
5 | COc1cc2c(N3CCN(/C(S)=N\c4ccc(Cl)nn4)CC3)ncnc2cc1OCCN1CCCCC1 | 1330 | 420 | 
6 | COc1cc2c(N3CCN(C(=S)NCc4ccc(-c5cccnc5)cc4)CC3)ncnc2cc1OCCN1CCCCC1 | 5190 | 14800 | 
7 | COc1cc2c(N3CCN(/C(S)=N\Cc4cccnc4)CC3)ncnc2cc1OCCCN1CCCCC1 | 320 | 50 | 
8 | COc1cc2c(N3CCN(/C(S)=N\Cc4ccnc(Cl)c4)CC3)ncnc2cc1OCCN1CCCCC1 | 770 | 1790 | 
9 | COc1cc2c(N3CCN(C(=S)NCc4cnc(C)cn4)CC3)ncnc2cc1OCCCN1CCCCC1 | 50 | 140 | IC50 [3]: 1350 nM; IC50 [4]: 1520 nM; IC50 [5]: > 30000 nM
10 | COc1cc2c(N3CCN(C(=S)NCc4ccc(-c5ccccn5)cc4)CC3)ncnc2cc1OCCN1CCCCC1 | 1490 | 2130 | 
11 | COc1cc2c(N3CCN(C(=S)NCc4cnc(C)cn4)CC3)ncnc2cc1OCCN1CCOCC1 | 230 | 1360 | 
12 | COc1cc2c(N3CCN(/C(S)=N\Cc4ccc(-c5ccccc5)nc4)CC3)ncnc2cc1OCCCN1CCCCC1 | 130 | 20 | 
13 | COc1cc2c(N3CCN(/C(=N\Cc4cc(C)on4)NC#N)CC3)ncnc2cc1OCCCN1CCCCC1 | 2370 | 10500 | 
14 | COc1cc2c(N3CCN(C(=S)Nc4ccc(-c5ccccc5)nc4)CC3)ncnc2cc1OCCCN1CCCCC1 | 270 | 360 | IC50 [3]: 100 nM; IC50 [4]: 190 nM; IC50 [5]: 5550 nM
15 | COc1cc2c(N3CCN(/C(=N\Cc4ccc5c(c4)OCO5)NC#N)CC3)ncnc2cc1OCCCN1CCCCC1 | 590 | 320 | 
16 | COc1cc2c(N3CCN(/C(S)=N\c4ccc(-c5ccccn5)cc4)CC3)c(C#N)cnc2cc1OCCCN1CCCCC1 | 130 | 220 | 
17 | COc1cc2c(N3CCN(/C(S)=N\c4ccc(Br)cc4)CC3)ncnc2cc1OCCN1CCCCC1 | 390 | 1010 | 
18 | COc1cc2c(N3CCN(C(=S)NCc4ccc(C(F)(F)F)nc4)CC3)ncnc2cc1OCCCN1CCCCC1 | 60 | 30 | 
19 | COc1cc2c(N3CCN(C(=S)NCc4csc(-c5ccc(C(F)(F)F)cc5)n4)CC3)ncnc2cc1OCCCN1CCCCC1 | 4470 | 3090 | 
20 | COc1cc2c(N3CCN(/C(S)=N\c4ccc(-c5ccccc5)nc4)CC3)c(C#N)cnc2cc1OCCCN1CCCCC1 | 280 | 150 | 
21 | COc1cc2c(N3CCN(C(=S)NCc4ccncc4)CC3)ncnc2cc1OCCN1CCCCC1 | 3590 | 12100 | 
22 | COc1cc2c(N3CCN(/C(S)=N\Cc4ccc(C(F)(F)F)nc4)CC3)c(C#N)cnc2cc1OCCCN1CCCCC1 | 10 | 3 | IC50 [3]: 10 nM; IC50 [4]: 20 nM; IC50 [5]: 40 nM
23 | COc1cc2c(N3CCN(C(=S)Nc4ccc(Br)cc4)CC3)ncnc2cc1OCCN1CCCC1 | 470 | 350 | 
24 | COc1cc2c(N3CCN(/C(S)=N\c4ccncc4)CC3)ncnc2cc1OCCN1CCCCC1 | 400 | 240 | IC50 [3]: 980 nM; IC50 [4]: 2970 nM; IC50 [5]: > 30000 nM

Second part, led by results:

Row | IC50 [1] [nM] | IC50 [2] [nM] | SMILES | also measured
25 | 5040 | 9530 | COc1cc2c(N3CCN(C(=S)NCc4ccc(-c5ccncc5)cc4)CC3)ncnc2cc1OCCN1CCCCC1 | 
26 | 1400 | 1130 | COc1cc2c(N3CCN(/C(S)=N\Cc4ccc(C(F)(F)F)nc4Cl)CC3)ncnc2cc1OCCN1CCCCC1 | IC50 [3]: 100 nM; IC50 [4]: 790 nM; IC50 [5]: 6770 nM
27 | 160 | 5 | COc1cc2c(N3CCN(/C(S)=N\Cc4ccc5c(c4)OCO5)CC3)ncnc2cc1OCCN1CCCC1 | 
28 | 510 | 890 | COc1cc2c(N3CCN(C(=S)Nc4ccc(Cl)nc4)CC3)ncnc2cc1OCCN1CCCCC1 | IC50 [3]: 360 nM; IC50 [4]: 500 nM; IC50 [5]: 19800 nM
29 | 1060 | 4100 | COc1cc2c(N3CCN(/C(S)=N\c4ccc(C(F)(F)F)nc4)CC3)ncnc2cc1OCCN1CCCCC1 | 
30 | 90 | 80 | COc1cc2c(N3CCN(/C(S)=N\Cc4ccc(C)o4)CC3)ncnc2cc1OCCCN1CCCCC1 | IC50 [3]: 80 nM; IC50 [4]: 50 nM; IC50 [5]: > 30000 nM
31 | 60 | 220 | COc1cc2c(N3CCN(C(=S)Nc4ccncc4)CC3)ncnc2cc1OCCCN1CCCCC1 | IC50 [3]: 580 nM; IC50 [4]: 1850 nM; IC50 [5]: 24200 nM
32 | 120 | 20 | COc1cc2c(N3CCN(C(=S)NCc4ccc5c(c4)OCO5)CC3)ncnc2cc1OCCN1CCCCC1 | AUC [6]: 69 µg/h/mL; bioavailability [7]: 39.1%; Cmax [8]: 92.5 ng/mL; Cmax [9]: 146 ng/mL; IC50 [3]: 40 nM; Cmax [10]: 456 ng/mL; half-life [11]: 15.7 h; IC50 [4]: 60 nM; bioavailability [12]: 102%; IC50 [5]: 2910 nM; half-life [13]: 9.25 h; half-life [14]: 26.7 h
33 | 90 | 140 | COc1cc2c(N3CCN(/C(S)=N\Cc4ccc(C)nc4)CC3)ncnc2cc1OCCCN1CCCCC1 | IC50 [3]: 140 nM; IC50 [4]: 240 nM; IC50 [5]: > 30000 nM
34 | 4980 | 3760 | COc1cc2c(N3CCN(C(=S)Nc4cccnc4)CC3)ncnc2cc1OCCN1CCCCC1 | 
35 | 350 | 1150 | COc1cc2c(N3CCN(C(=S)NCc4ccc(C)nc4Cl)CC3)ncnc2cc1OCCN1CCCCC1 | 
36 | 100 | 10 | COc1cc2c(N3CCN(C(=S)NCc4ccc(-c5ccccc5)nc4)CC3)c(C#N)cnc2cc1OCCCN1CCCCC1 | 
37 | 100 | 220 | COc1cc2c(N3CCN(C(=S)Nc4ccc(-c5ccccn5)cc4)CC3)ncnc2cc1OCCCN1CCCCC1 | 
38 | 2180 | 3420 | COc1cc2c(N3CCN(/C(=N\Cc4ccc(C(F)(F)F)nc4)NC#N)CC3)ncnc2cc1OCCCN1CCCCC1 | 
39 | 370 | 420 | COc1cc2c(N3CCN(/C(=N\c4ccc(-c5ccccn5)cc4)NC#N)CC3)ncnc2cc1OCCCN1CCCCC1 | 
40 | 130 | 240 | COc1cc2c(N3CCN(C(=S)Nc4ccncc4)CC3)c(C#N)cnc2cc1OCCCN1CCCCC1 | 
41 | 310 | 160 | COc1cc2c(N3CCN(/C(S)=N\Cc4ccco4)CC3)ncnc2cc1OCCN1CCCC1 | IC50 [3]: 290 nM; IC50 [4]: 1800 nM; IC50 [5]: > 30000 nM

Row | IC50 [1] [nM] | IC50 [2] [nM] | SMILES | also measured
42 | 2450 | 13400 | COc1cc2c(N3CCN(C(=S)NCc4ccncc4)CC3)ncnc2cc1OCCCN1CCCCC1 | 
43 | 450 | 630 | COc1cc2c(N3CCN(C(=S)NCc4csc(C)n4)CC3)ncnc2cc1OCCCN1CCCCC1 | 
44 | 430 | 800 | COc1cc2c(N3CCN(/C(S)=N\c4ccc(-c5cccc[n+]5[O-])cc4)CC3)ncnc2cc1OCCN1CCCCC1 | 
45 | 710 | 2110 | COc1cc2c(N3CCN(/C(S)=N\Cc4cccnc4)CC3)ncnc2cc1OCCN1CCCCC1 | 
46 | 80 | 1010 | COc1cc2c(N3CCN(C(=S)NCc4ccc(Cl)nc4)CC3)ncnc2cc1OCCN1CCCCC1 | IC50 [3]: 50 nM; IC50 [4]: 70 nM; IC50 [5]: > 30000 nM
47 | 120 | 5 | COc1cc2c(N3CCN(/C(S)=N\c4ccc(C#N)cc4)CC3)c(C#N)cnc2cc1OCCCN1CCCCC1 | 
48 | 5040 | 2000 | COc1cc2c(N3CCN(/C(S)=N\c4nccs4)CC3)ncnc2cc1OCCN1CCCCC1 | 
49 | 1790 | 1540 | COc1cc2c(N3CCN(/C(S)=N\c4ccnc(C#N)c4)CC3)ncnc2cc1OCCN1CCCCC1 | 
50 | 540 | 180 | COc1cc2c(N3CCN(/C(S)=N\c4ccc(Br)cc4)CC3)ncnc2cc1OCCN1CCOCC1 | 
51 | 2930 | 5810 | COc1cc2c(N3CCN(C(=S)NCc4ccc(N)nc4)CC3)ncnc2cc1OCCN1CCCCC1 | 
52 | 260 | 100 | COc1cc2c(N3CCN(/C(S)=N\Cc4ccc5c(c4)OCO5)CC3)ncnc2cc1OCCN1CCOCC1 | 
53 | 50 | 5 | COc1cc2c(N3CCN(/C(S)=N\Cc4ccc(C(F)(F)F)nc4)CC3)ncnc2cc1OCCCN1CCOCC1 | 
54 |  | 4090 | COc1cc2c(N3CCN(/C(S)=N\Cc4ccccn4)CC3)ncnc2cc1OCCN1CCCCC1 | 
55 | 550 | 1980 | COc1cc2c(N3CCN(C(=S)Nc4ccc(-c5ccccc5)cn4)CC3)ncnc2cc1OCCCN1CCCCC1 | 
56 | 1550 | 800 | COc1cc2c(N3CCN(C(=NC#N)Nc4ccc(C(C)(C)C)cc4)CC3)ncnc2cc1OCCCN1CCCCC1 | 
57 | 60 | 20 | COc1cc2c(N3CCN(C(=S)NCc4ccc(Cl)nc4)CC3)ncnc2cc1OCCCN1CCCCC1 | 
